Data on six compounds can be found in the supplement of paper PMC11061612.

For assay [1], the system named is PANC-02-03 (Pancreatic Carcinoma). Nature of the assay: Bliss excess, mean over the matrix (fraction); higher = more synergy. The gist of the method: (§1)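 Cell lines grown in DMEM/F12 or RPMI with 10% FBS were plated in 1536-well plates and held 24 hours at 37°C, 5% CO2 before 72 hours of exposure to two-drug dose matrices, with DMSO typically at 0.2%. CellTiter-Glo 2.0 luminescence gave viability, which was converted to inhibition. Vehicle wells were set to 0 and blank wells to 1. Combination Emax is the second-highest inhibition in the matrix, and Bliss excess is the observed combination effect minus the expected EA + EB − EA·EB, where EA and EB are the single-agent effects.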

Assay [2] has as its system RERF-LC-KJ (Lung Adenocarcinoma). Described as above. In outline: as §1
The subject of assay [3] is NCI-H1563 (Lung Adenocarcinoma). Described as above. The gist of the method: as §1
Assay [4] concerns HTC-C3 (Thyroid Gland Carcinoma). The assay is described as above. The gist of the method: as §1
Assay [5] relates to PC-14 (Lung Adenocarcinoma). Described as above. The gist of the method:
as §1

The subject of assay [6] is AN3-CA (Endometrial Carcinoma). The assay is described as above. The gist of the method: as §1
The subject of assay [7] is LOUCY (T-Lymphoblastic Leukemia). The description is as above. In outline:
as §1

In assay [8] the test system is NCI-H810 (Non-Small Cell Lung Carcinoma). Described as above. The gist of the method: as §1
In assay [9] the test system is Caov-3 (Ovarian Carcinoma). The description is as above. In outline: as §1
In assay [10] the test system is BALL-1 (B-Lymphoblastic Leukemia). The description is as above. The gist of the method: as §1
For assay [11], the system named is 786-0 (Kidney Carcinoma). Described as above. The gist of the method:
as §1

The test system of assay [12] is SW684 (Other Solid Carcinomas). The assay is described as above. The gist of the method:
as §1

Assay [13] concerns SNU-175 (Colorectal Carcinoma). The assay is described as above. In outline: as §1
For assay [14], the system named is RMG-I (Ovarian Carcinoma). Described as above. In outline: as §1
Assay [15] deals with ES-2 (Ovarian Carcinoma). The assay is described as above. In outline:
as §1

In assay [16] the test system is OCI-AML5 (Acute Myeloid Leukemia). The description is as above. The gist of the method: as §1
The test system of assay [17] is RT4 (Bladder Carcinoma). The assay is described as above. The gist of the method: as §1
The test system of assay [18] is NKM-1 (Acute Myeloid Leukemia). Described as above. The gist of the method: as §1
The test system of assay [19] is RL95-2 (Endometrial Carcinoma). The assay can be described thus: combination Emax (second highest fraction inhibited in the dose matrix, 72 h); higher = more inhibition; extreme values may be limits of the assay. The gist of the method:
as §1

Assay [20] deals with NKM-1 (Acute Myeloid Leukemia). Described as above. The gist of the method: as §1
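Throughout, for Bliss excess, mean over the matrix: after 72 h of two-drug dosing.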

In the case of `CN(CCO)CC[C@H](CSc1ccccc1)Nc1ccc(S(=O)(=O)NC(=O)c2ccc(N3CCC([C@@H](O)c4ccccc4-c4ccc(Cl)cc4)CC3)cc2)cc1S(=O)(=O)C(F)(F)F` [AZD4320] + C[C@@H](Nc1cc(F)cc(F)c1)c1cc(C(=O)N(C)C)cc2c(=O)cc(N3CCOCC3)oc12 [AZD8186] (first compound max 1 µM, 7x7, partner max 3 µM), the Bliss excess in [1] is -0.0465; in [2], 0.0703; in assay [3] it was 0.0295; in [4] it was 0.0311; in [5], 0.0228; in assay [6], -0.0339. Besides, the Bliss excess in assay [7] is 0.0111; in [8], -0.0461; in [9], -0.019; in assay [10], 0.0506; in [11], -0.0081; in [12], -0.0356. Further, the Bliss excess in [13] was -0.0233; in assay [14], -0.0066; in [15], 0.0151; in assay [16], 0.0823; in assay [17], 0.032; in assay [18] it was 0.0224. In addition, the “combination Emax” value amounted to 0.253 in assay [19] and 1 in assay [20].

For the compound `CN(CCO)CC[C@H](CSc1ccccc1)Nc1ccc(S(=O)(=O)NC(=O)c2ccc(N3CCC([C@@H](O)c4ccccc4-c4ccc(Cl)cc4)CC3)cc2)cc1S(=O)(=O)C(F)(F)F` [AZD4320] + CCN(CCO)CCCOc1ccc2c(Nc3cc(CC(=O)Nc4cccc(F)c4)[nH]n3)ncnc2c1 [AZD2811] (first compound max 1 µM, 7x7, partner max 1 µM), the Bliss excess in assay [1] was -0.0246; in assay [2], -0.028; in assay [3], -0.0002; in assay [4], -0.0348; in assay [5], 0.0099; in assay [6], 0.101. Moreover, the Bliss excess in assay [7] is -0.0011; in assay [8], 0.0178; in assay [9] it was 0.0419; in assay [10] it was 0.14; in assay [11] it was -0.0374; in assay [12], -0.0717. In addition, the Bliss excess in [13] was 0.0362; in assay [14], -0.0297; in assay [15] it was -0.0208; in [16] it was -0.004; in assay [17], 0.163; in assay [18], 0.0403. The “combination Emax” value in assay [19] worked out at 0.92; in [20], 1.

Consider `CN(C)CCCOc1ccc(-c2ccc3ncc4c(c3c2)n(C2CCOCC2)c(=O)n4C)cn1` [AZD0156] + C=CCn1c(=O)c2cnc(Nc3ccc(N4CCN(C)CC4)cc3)nc2n1-c1cccc(C(C)(C)O)n1 [AZD1775] (first compound max 1 µM, partner max 1 µM), for which the Bliss excess was -0.026 in assay [1]; -0.0193 in assay [2]; -0.0549 in assay [3]; -0.0187 in [4]; -0.0209 in assay [5]; -0.0041 in assay [6]. Moreover, the Bliss excess in assay [7] is -0.0123; in assay [8], -0.0519; in [9], -0.0434; in assay [10], 0.0118; in assay [11], 0.0005; in [12], -0.076. Besides, the Bliss excess is 0.0169 in assay [13]; -0.0545 in [14]; -0.0249 in [15]; -0.0359 in assay [16]; -0.0136 in [17]; -0.0605 in assay [18]. Moreover, the “combination Emax” value in assay [19] was determined as 0.429; in assay [20] it was 0.853.

As for `CC1(C)CCC(CN2CCN(c3ccc(C(=O)NS(=O)(=O)c4ccc(NCC5CCOCC5)c([N+](=O)[O-])c4)c(Oc4cnc5[nH]ccc5c4)c3)CC2)=C(c2ccc(Cl)cc2)C1` [Venetoclax] + CCN(CCO)CCCOc1ccc2c(Nc3cc(CC(=O)Nc4cccc(F)c4)[nH]n3)ncnc2c1 [AZD2811] (first compound max 1 µM, 7x7, partner max 1 µM), the Bliss excess in assay [1] was -0.0283; in [2], -0.0222; in [3], 0.0151; in assay [4], -0.0236; in assay [5], 0.0131; in [6], 0.0345. Besides, the Bliss excess in [7] is -0.0278; in [8], -0.034; in assay [9], -0.0544; in assay [10], 0.0632; in assay [11], -0.0469; in assay [12], -0.0043. In addition, the Bliss excess was -0.0552 in assay [13]; -0.055 in [14]; -0.0388 in [15]; -0.0195 in assay [16]; 0.0704 in assay [17]; 0.0697 in assay [18]. Besides, the “combination Emax” value is 0.593 in assay [19] and 1 in assay [20].

With `CC1(C)CCC(CN2CCN(c3ccc(C(=O)NS(=O)(=O)c4ccc(NCC5CCOCC5)c([N+](=O)[O-])c4)c(Oc4cnc5[nH]ccc5c4)c3)CC2)=C(c2ccc(Cl)cc2)C1` [Venetoclax] + Cc1cc2ncnn2cc1Nc1ncc2c(n1)n(C1CCOCC1)c(=O)n2C [AZD7648] (first compound max 1 µM, 7x7, partner max 10 µM), the Bliss excess in [1] is -0.0646; in [2] it was -0.0564; in assay [3] it was -0.0123; in [4] it was -0.0197; in [5], -0.0163; in [6], -0.0108. In addition, the Bliss excess is 0.0678 in [7]; -0.028 in [8]; -0.159 in assay [9]; -0.0008 in assay [10]; -0.0487 in [11]; -0.0627 in [12]. Besides, the Bliss excess in assay [13] was -0.0327; in assay [14], -0.0277; in assay [15], -0.0087; in assay [16], -0.0238; in assay [17], -0.0115; in [18] it was 0.0323. In addition, the “combination Emax” value amounted to 0.194 in assay [19] and 0.959 in assay [20].

For the compound `Cc1c2c(nn1C)CSCc1cc(n(C)n1)CSc1cc(c3ccccc3c1)OCCCc1c(C(=O)O)n(C)c3c-2c(Cl)ccc13` [AZD5991] + Cn1cnc2c(F)c(Nc3ccc(Br)cc3Cl)c(C(=O)NOCCO)cc21 [Selumetinib] (first compound max 1 µM, 7x7, partner max 3 µM), the Bliss excess in [1] is -0.003; in [2] it was 0.0466; in [3], 0.0158; in assay [4], -0.0271; in assay [5] it was 0.0286; in assay [6], 0.0158. For the same compound, the Bliss excess was 0.0129 in [7]; -0.0133 in assay [8]; 0.0536 in assay [9]; -0.0064 in assay [10]; 0.0107 in assay [11]; -0.0091 in assay [12]. Also, the Bliss excess in [14] was -0.0027; in assay [15] it was 0.0389; in assay [16], 0.0422; in assay [17], 0.0266; in assay [18], -0.0014. The “combination Emax” value turned out to be 1 in assay [19] and 0.989 in assay [20].
